# Starred links: 1 amine or outer side, 2 acyl side, 3 side chain; linkers in the order of their positions; H or OH if unused. Positions of bridges follow the written chain, without caps; N, C: chain ends. Non-standard residues stand in square brackets, D forms with d. Residues, ends and D or L forms follow the SMILES beside them. *: point of attachment. hPhe(3-Cl-4-CF3) = N[C@@H](CCc1ccc(C(F)(F)F)c(Cl)c1)C(=O)O; NMePhe(4-CF3) = CN[C@@H](Cc1ccc(C(F)(F)F)cc1)C(=O)O; hPhe(4-CF3) = N[C@@H](CCc1ccc(C(F)(F)F)cc1)C(=O)O; NMePhe(4-Cl) = CN[C@@H](Cc1ccc(Cl)cc1)C(=O)O; NMePhe(4-Me) = CN[C@@H](Cc1ccc(C)cc1)C(=O)O; NMedβ3hAla = C[C@H](CC(=O)[*:2])N(C)[*:1]; NMeGly(cPent) = CN[C@H](C(=O)O)C1CCCC1; NMeCha = CN[C@@H](CC1CCCCC1)C(=O)O; NMeF = CN[C@@H](Cc1ccccc1)C(=O)O; NMeE = CN[C@@H](CCC(=O)O)C(=O)O; NMeD = CN[C@@H](CC(=O)O)C(=O)O; NMeL = CN[C@@H](CC(C)C)C(=O)O; NMeV = CN[C@H](C(=O)O)C(C)C; d(β3hA) = C[C@@H](N)CC(=O)O; N(iPr)Gly = CC(C)NCC(=O)O; NMeS = CN[C@@H](CO)C(=O)O; dNMeS = CN[C@H](CO)C(=O)O; Morpholide = C1CN(*)CCO1; NMeA = CN[C@@H](C)C(=O)O; NMeAib = CNC(C)(C)C(=O)O; Piperidide = C1CCN(*)CC1; Pyrrolidide = C1CCN(*)C1; dNMeA = CN[C@H](C)C(=O)O; Ac5c = NC1(C(=O)O)CCCC1; Aze = O=C(O)[C@@H]1CCN1; Isopentyl = CC(C)CC*; Sar = CNCC(=O)O; Propyl = CCC*
# Molecular target: T1, Kras and SOS1 (biotin-tagged human Kras loaded with GDP, His-tagged human SOS1) (Homo sapiens, UniProt P01116, G12D)
# T1 construct: made in house; host or cells: E. coli (stated for Kras only)
# T1 sequence (P01116 1-188 isoform P01116-2 G12D): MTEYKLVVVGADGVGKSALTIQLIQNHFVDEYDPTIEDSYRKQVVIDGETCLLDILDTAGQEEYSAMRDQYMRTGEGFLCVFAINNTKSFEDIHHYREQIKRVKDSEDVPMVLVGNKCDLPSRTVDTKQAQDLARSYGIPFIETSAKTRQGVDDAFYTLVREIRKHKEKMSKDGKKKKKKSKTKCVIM
# Experiment: Protein-protein interaction inhibition between Kras and SOS1 (KrasGl2D-SOS PPI) using AlphaScreen
# Format: binding
# Settings: AlphaScreen; biotin-tagged human Kras loaded with GDP, His-tagged human SOS1; read-out: KRAS G12D-SOS PPI IC50
# How it was run: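 Binding between SOS1 and Kras is detected as bead-proximity luminescence: illuminate Ni-conjugated donors (680 nm), collect 520-620 nm emission from streptavidin-conjugated acceptors; Kras carries biotin and GDP loaded after purification, SOS1 carries a His tag.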
row,SMILES,IC50 [nM]
1,CC[C@H](C)[C@@H]1NC(=O)[C@H](CC(C)C)N(C)C(=O)C[C@@H](C(=O)N2CCOCC2)N(C)C(=O)[C@H](C2CCCC2)N(C)C(=O)C2(CCCC2)NC(=O)[C@H](CCC(=O)NC)N(C)C(=O)[C@H](CCc2ccc(C(F)(F)F)c(Cl)c2)NC(=O)CN(C)C(=O)[C@H](CC2CCCCC2)N(C)C(=O)[C@@H]2CCN2C(=O)[C@H](C)N(C)C1=O [Compound 2111] ([NMeL]I[NMeA][Aze][NMeCha][Sar][hPhe(3-Cl-4-CF3)][NMeE](NHMe)[Ac5c][NMeGly(cPent)][NMeD]-Morpholide; lactam N-11),8.2
2,CCCOC[C@H]1C(=O)N(C)CC(=O)N[C@@H](CCc2ccc(C(F)(F)F)c(Cl)c2)C(=O)N2CCC[C@H]2C(=O)NC2(CCCC2)C(=O)N(C)[C@@H](C2CCCC2)C(=O)N(C)[C@H](C(=O)N2CCOCC2)CC(=O)N(C)[C@@H](CC(C)C)C(=O)N[C@@H]([C@@H](C)CC)C(=O)N(C)[C@@H](C)C(=O)N2CC[C@H]2C(=O)N1C [Compound 974] ([NMeL]I[NMeA][Aze][NMeS](Propyl)[Sar][hPhe(3-Cl-4-CF3)]P[Ac5c][NMeGly(cPent)][NMeD]-Morpholide; lactam N-11),0.91
3,CC[C@H](C)[C@@H]1NC(=O)[C@H](CC(C)C)N(C)C(=O)C[C@@H](C)N(C)C(=O)[C@H](CC(C)C)NC(=O)C(C)(C)N(C)C(=O)[C@H](CC(C)C)NC(=O)[C@H](CCc2ccc(C(F)(F)F)c(Cl)c2)NC(=O)[C@@H](C)N(C)C(=O)[C@H](CC2CCCCC2)N(C)C(=O)[C@@H]2CCN2C(=O)CN(C)C1=O [Compound 1400] (cyclo([Aze][NMeCha][dNMeA][hPhe(3-Cl-4-CF3)]L[NMeAib]L[NMedβ3hAla][NMeL]I[Sar])),210
4,CC[C@H](C)[C@@H]1NC(=O)[C@H](C)N(C)C(=O)C[C@@H](C)N(C)C(=O)[C@H](CC(C)C)NC(=O)C(C)(C)N(C)C(=O)[C@H](CC(C)C)NC(=O)[C@H](CCc2ccc(C(F)(F)F)c(Cl)c2)NC(=O)[C@@H](C)N(C)C(=O)[C@H](Cc2ccc(C(F)(F)F)cc2)N(C)C(=O)[C@@H]2CCN2C(=O)CN(C)C1=O [Compound 1383] (cyclo([Aze][NMePhe(4-CF3)][dNMeA][hPhe(3-Cl-4-CF3)]L[NMeAib]L[NMedβ3hAla][NMeA]I[Sar])),130
5,CC[C@H](C)[C@@H]1NC(=O)[C@H](CC(C)C)N(C)C(=O)C[C@@H](C)NC(=O)[C@H](C(C)C)N(C)C(=O)C2(CCCC2)NC(=O)[C@@H]2CCCN2C(=O)[C@H](CCc2ccc(C(F)(F)F)c(Cl)c2)NC(=O)CN(C)C(=O)[C@H](CC2CCCCC2)N(C)C(=O)CN(C)C(=O)CN(C(C)C)C1=O [Compound 305] (cyclo([Ac5c][NMeV][d(β3hA)][NMeL]I[N(iPr)Gly][Sar][NMeCha][Sar][hPhe(3-Cl-4-CF3)]P)),170
6,CC[C@H](C)[C@@H]1NC(=O)[C@H](C)N(C)C(=O)C[C@@H](C)NC(=O)[C@H](C(C)C)N(C)C(=O)C2(CCCC2)NC(=O)[C@@H]2CCCN2C(=O)[C@H](CCc2ccc(C(F)(F)F)c(Cl)c2)NC(=O)[C@@H](C)N(C)C(=O)[C@H](CC2CCCCC2)N(C)C(=O)[C@@H]2CCN2C(=O)[C@H](C)N(C)C1=O [Compound 831] (cyclo([Ac5c][NMeV][d(β3hA)][NMeA]I[NMeA][Aze][NMeCha][dNMeA][hPhe(3-Cl-4-CF3)]P)),180
7,CC[C@H](C)[C@@H]1NC(=O)[C@H](C)N(C)C(=O)C[C@@H](C)N(C)C(=O)[C@H](CC(C)C)NC(=O)C(C)(C)N(C)C(=O)[C@H](CC(C)C)NC(=O)[C@H](CCc2ccc(C(F)(F)F)c(Cl)c2)NC(=O)[C@@H](C)N(C)C(=O)[C@H](Cc2ccc(C)cc2)N(C)C(=O)[C@@H]2CCN2C(=O)CN(C)C1=O [Compound 1382] (cyclo([Aze][NMePhe(4-Me)][dNMeA][hPhe(3-Cl-4-CF3)]L[NMeAib]L[NMedβ3hAla][NMeA]I[Sar])),230
8,CC[C@H](C)[C@@H]1NC(=O)[C@H](CC(C)C)N(C)C(=O)C[C@@H](C(=O)N2CCCCC2)N(C)C(=O)[C@H](C2CCCC2)N(C)C(=O)C2(CCCC2)NC(=O)[C@@H](COCCC(C)C)N(C)C(=O)[C@H](CCc2ccc(C(F)(F)F)c(Cl)c2)NC(=O)CN(C)C(=O)[C@H](CC2CCCCC2)N(C)C(=O)CN(C)C(=O)CN(C)C1=O [Compound 1440] ([NMeL]I[Sar][Sar][NMeCha][Sar][hPhe(3-Cl-4-CF3)][dNMeS](Isopentyl)[Ac5c][NMeGly(cPent)][NMeD]-Piperidide; lactam N-11),16
9,CC[C@H](C)[C@@H]1NC(=O)[C@H](C)N(C)C(=O)C[C@@H](C(=O)N2CCCC2)NC(=O)[C@H](CC(C)C)N(C)C(=O)[C@H](Cc2ccccc2)N(C)C(=O)[C@H](CC(C)C)NC(=O)[C@H](CCc2ccc(C(F)(F)F)cc2)NC(=O)CN(C)C(=O)[C@H](Cc2ccc(Cl)cc2)N(C)C(=O)CN(C)C(=O)CNC1=O [Compound 808] ([NMeA]IG[Sar][NMePhe(4-Cl)][Sar][hPhe(4-CF3)]L[NMeF][NMeL]D-Pyrrolidide; lactam N-11),99

# — patent US12371454B2, “Cyclic peptide compound having Kras inhibitory action” (priority 2019, dated 2025)
